Columns and labels:
Substance-K receptor = molecular target: T1, Substance-K receptor (Homo sapiens, UniProt P21452); assay type: cell membranes, CHO, Membrane; conditions: cho; also: in other assays of this panel Not Active means under 50% inhibition at 10 µM
T1 sequence (P21452 whole entry): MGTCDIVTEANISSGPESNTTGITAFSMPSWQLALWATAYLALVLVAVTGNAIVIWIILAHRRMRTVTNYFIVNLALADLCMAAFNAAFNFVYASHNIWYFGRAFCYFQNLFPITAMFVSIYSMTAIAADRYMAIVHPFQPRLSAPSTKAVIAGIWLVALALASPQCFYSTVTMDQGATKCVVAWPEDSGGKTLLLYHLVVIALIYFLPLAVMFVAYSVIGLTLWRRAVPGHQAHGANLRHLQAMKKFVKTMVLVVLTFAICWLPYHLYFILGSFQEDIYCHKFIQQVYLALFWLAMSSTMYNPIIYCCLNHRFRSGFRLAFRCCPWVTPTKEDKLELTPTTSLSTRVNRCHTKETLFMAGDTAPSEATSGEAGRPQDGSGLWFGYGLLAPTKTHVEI

Nitric oxide synthase 1 = Nitric oxide synthase 1 (Rattus norvegicus, UniProt P29476); assay type: tissue-based, Cerebellum; also: in other assays of this panel Not Active means under 50% inhibition at 10 µM
[1] = DRUGMATRIX: Calcium Channel Type L, Dihydropyridine radioligand binding (ligand: [3H] Nitrendipine); assay type: cell membranes, Rattus norvegicus, Wistar, Cerebral cortex, Membrane; conditions: Not Active = under 50% inhibition at 10 µM
Interstitial collagenase = molecular target: T2, Interstitial collagenase (Homo sapiens, UniProt P03956); test: biochemical; assay type: tissue-based, Rheumatoid synovial fibroblasts;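 also: MMP-1 enzyme inhibition assay using a peptide substrate; in other assays of this panel Not Active means under 50% inhibition at 10 µM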
T2 sequence (P03956 whole entry): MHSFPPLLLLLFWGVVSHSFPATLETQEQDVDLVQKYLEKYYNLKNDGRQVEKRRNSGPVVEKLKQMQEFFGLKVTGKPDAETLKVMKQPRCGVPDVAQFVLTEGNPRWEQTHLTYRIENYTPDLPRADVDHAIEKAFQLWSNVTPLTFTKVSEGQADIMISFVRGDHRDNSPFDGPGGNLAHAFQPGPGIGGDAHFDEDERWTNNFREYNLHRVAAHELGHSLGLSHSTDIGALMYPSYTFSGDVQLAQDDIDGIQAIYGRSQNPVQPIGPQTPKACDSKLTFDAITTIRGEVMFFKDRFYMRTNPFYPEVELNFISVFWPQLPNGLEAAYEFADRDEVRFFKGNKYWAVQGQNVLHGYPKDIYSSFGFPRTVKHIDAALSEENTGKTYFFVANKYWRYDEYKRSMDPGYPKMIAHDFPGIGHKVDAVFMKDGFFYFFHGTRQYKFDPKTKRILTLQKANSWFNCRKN

Thromboxane-A synthase = molecular target: T3, Thromboxane-A synthase (Homo sapiens, UniProt P24557); test: biochemical; assay type: tissue-based, Platelet;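 also: enzyme inhibition assay with PGH2 supplied as substrate; in other assays of this panel Not Active means under 50% inhibition at 10 µM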
T3 sequence (P24557 whole entry): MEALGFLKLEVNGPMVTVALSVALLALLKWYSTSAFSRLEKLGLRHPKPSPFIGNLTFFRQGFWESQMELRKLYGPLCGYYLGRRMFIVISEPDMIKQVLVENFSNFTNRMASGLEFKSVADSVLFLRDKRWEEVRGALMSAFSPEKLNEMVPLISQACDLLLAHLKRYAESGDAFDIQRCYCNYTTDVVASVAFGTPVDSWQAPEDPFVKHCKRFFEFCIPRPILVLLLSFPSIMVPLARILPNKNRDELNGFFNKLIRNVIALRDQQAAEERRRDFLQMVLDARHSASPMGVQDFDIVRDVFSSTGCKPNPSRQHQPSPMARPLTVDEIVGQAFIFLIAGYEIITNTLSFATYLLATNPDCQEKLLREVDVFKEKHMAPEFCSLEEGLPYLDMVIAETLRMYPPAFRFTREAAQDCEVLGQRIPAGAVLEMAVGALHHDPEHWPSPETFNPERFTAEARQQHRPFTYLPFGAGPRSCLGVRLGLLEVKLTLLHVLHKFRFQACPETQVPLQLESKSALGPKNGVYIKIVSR

[2] = DRUGMATRIX: beta-Lactamase enzyme inhibition (substrate: Nitrocefin); parameters: species or system Bacillus cereus; conditions: Not Active = under 50% inhibition at 10 µM
Neutrophil elastase = molecular target: T4, Neutrophil elastase (Homo sapiens, UniProt P08246); assay type: tissue-based
T4 sequence (P08246 whole entry): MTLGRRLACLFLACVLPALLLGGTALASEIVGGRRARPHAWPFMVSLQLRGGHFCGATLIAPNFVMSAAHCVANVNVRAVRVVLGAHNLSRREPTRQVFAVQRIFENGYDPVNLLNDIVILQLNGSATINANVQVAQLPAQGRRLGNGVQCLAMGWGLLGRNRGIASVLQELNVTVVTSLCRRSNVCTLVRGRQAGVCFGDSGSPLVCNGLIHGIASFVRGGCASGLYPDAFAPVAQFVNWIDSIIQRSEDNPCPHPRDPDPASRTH

Chain of Nitric oxide synthase 1 (P29476 whole entry): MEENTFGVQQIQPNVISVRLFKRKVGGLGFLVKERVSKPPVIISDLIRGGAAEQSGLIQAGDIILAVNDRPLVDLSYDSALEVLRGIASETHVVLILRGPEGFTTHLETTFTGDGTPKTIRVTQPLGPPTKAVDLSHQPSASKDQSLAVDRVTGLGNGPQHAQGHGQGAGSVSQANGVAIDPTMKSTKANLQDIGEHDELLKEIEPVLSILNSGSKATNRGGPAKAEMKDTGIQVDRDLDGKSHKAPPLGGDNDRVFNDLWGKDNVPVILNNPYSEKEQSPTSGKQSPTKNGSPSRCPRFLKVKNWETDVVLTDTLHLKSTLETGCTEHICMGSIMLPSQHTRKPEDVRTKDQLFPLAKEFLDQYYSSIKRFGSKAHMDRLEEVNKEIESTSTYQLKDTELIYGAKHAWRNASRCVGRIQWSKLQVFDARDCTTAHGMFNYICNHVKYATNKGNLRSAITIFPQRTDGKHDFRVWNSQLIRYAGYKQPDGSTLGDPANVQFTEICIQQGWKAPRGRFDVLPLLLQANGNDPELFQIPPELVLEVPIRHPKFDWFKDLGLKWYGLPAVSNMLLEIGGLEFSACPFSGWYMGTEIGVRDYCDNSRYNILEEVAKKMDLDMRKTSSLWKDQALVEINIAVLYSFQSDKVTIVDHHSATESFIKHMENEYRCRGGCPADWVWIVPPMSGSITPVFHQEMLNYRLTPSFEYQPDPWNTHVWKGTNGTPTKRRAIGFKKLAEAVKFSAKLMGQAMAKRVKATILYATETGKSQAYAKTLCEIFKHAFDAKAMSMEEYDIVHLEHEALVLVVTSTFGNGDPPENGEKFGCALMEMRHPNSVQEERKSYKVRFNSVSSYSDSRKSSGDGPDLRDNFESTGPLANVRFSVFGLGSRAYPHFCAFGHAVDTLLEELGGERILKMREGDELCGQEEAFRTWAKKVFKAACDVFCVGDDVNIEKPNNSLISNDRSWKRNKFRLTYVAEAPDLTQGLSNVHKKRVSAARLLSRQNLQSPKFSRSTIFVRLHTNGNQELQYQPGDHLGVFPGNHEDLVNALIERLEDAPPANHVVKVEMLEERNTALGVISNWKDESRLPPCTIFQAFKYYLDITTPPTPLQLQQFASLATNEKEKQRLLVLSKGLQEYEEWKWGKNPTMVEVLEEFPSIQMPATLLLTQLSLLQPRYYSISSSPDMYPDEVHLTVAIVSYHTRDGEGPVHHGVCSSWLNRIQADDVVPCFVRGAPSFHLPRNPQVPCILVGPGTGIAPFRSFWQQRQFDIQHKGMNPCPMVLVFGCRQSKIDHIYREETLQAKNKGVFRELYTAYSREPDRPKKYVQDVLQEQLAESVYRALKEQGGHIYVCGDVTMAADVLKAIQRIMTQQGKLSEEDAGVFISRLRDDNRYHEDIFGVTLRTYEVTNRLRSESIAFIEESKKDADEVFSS

Row | Structure (SMILES) | IC50 (Substance-K receptor) | IC50 (Nitric oxide synthase 1) | IC50 [1] | Ki [1] | IC50 (Interstitial collagenase) | IC50 (Thromboxane-A synthase; read-out: IC50) [nM] | IC50 [2] | Ki [2] | IC50 (Neutrophil elastase) | IC50 (Thromboxane-A synthase; platelet)
1 | O=C(OC[C@H]1O[C@@H](OC(=O)c2cc(O)c(O)c(OC(=O)c3cc(O)c(O)c(O)c3)c2)[C@H](OC(=O)c2cc(O)c(O)c(OC(=O)c3cc(O)c(O)c(O)c3)c2)[C@@H](OC(=O)c2cc(O)c(O)c(OC(=O)c3cc(O)c(O)c(O)c3)c2)[C@@H]1OC(=O)c1cc(O)c(O)c(OC(=O)c2cc(O)c(O)c(O)c2)c1)c1cc(O)c(O)c(OC(=O)c2cc(O)c(O)c(O)c2)c1 [TANNIC ACID] | Not Active | Not Active | Not Active | Not Active | Not Active | 325 | Not Active | Not Active | Not Active | 
2 | Oc1ccc(/C=C/c2cc(O)cc(O)c2)cc1 [RESVERATROL] | Not Active | Not Active | Not Active | Not Active | Not Active |  | Not Active | Not Active | Not Active | Not Active
3 | CC[C@@]1(O)C(=O)OCc2c1cc1n(c2=O)Cc2cc3c(CN(C)C)c(O)ccc3nc2-1 [TOPOTECAN] | Not Active | Not Active | Not Active | Not Active | Not Active |  | Not Active | Not Active | Not Active | Not Active
4 | C=CCc1ccc2c(c1)OCO2 [SAFROLE] | Not Active | Not Active | Not Active | Not Active | Not Active |  | Not Active | Not Active | Not Active | Not Active
5 | C1CCN2C[C@@H]3C[C@@H](CN4CCCC[C@@H]34)[C@H]2C1 [SPARTEINE] | Not Active | Not Active | Not Active | Not Active | Not Active |  | Not Active | Not Active | Not Active | Not Active
6 | CC[C@H](C)C(=O)O[C@H]1CCC=C2C=C[C@H](C)[C@H](CC[C@@H]3C[C@@H](O)CC(=O)O3)[C@H]21 [MEVASTATIN] | Not Active | Not Active | Not Active | Not Active | Not Active |  | Not Active | Not Active | Not Active | Not Active
7 | CS(=O)(=O)c1ccc(C2=C(c3ccccc3)C(=O)OC2)cc1 [ROFECOXIB] | Not Active | Not Active | Not Active | Not Active | Not Active |  | Not Active | Not Active | Not Active | Not Active
8 | Cc1cn([C@H]2C=C[C@@H](CO)O2)c(=O)[nH]c1=O [STAVUDINE] | Not Active | Not Active | Not Active | Not Active | Not Active |  | Not Active | Not Active | Not Active | Not Active
9 | Nc1nc(N)c2nc(-c3ccccc3)c(N)nc2n1 | Not Active | Not Active | Not Active | Not Active | Not Active |  | Not Active | Not Active | Not Active | Not Active
10 | Cc1[nH]c(=O)c(C#N)cc1-c1ccncc1 [MILRINONE] | Not Active | Not Active | Not Active | Not Active | Not Active |  | Not Active | Not Active | Not Active | Not Active
11 | C[C@]12CCC(=O)C[C@@H]1CC[C@@H]1[C@@H]2CC[C@]2(C)[C@@H](O)CC[C@@H]12 [STANOLONE] | Not Active | Not Active | Not Active | Not Active | Not Active |  | Not Active | Not Active | Not Active | Not Active

From ChEMBL document CHEMBL1909046, “DrugMatrix in vitro pharmacology data”
